Laboratory results from patent publication US9259396B2, “Method of preparing soy isoflavone nanoparticles by precipitation with compressed antisolvent (PCA) using a supercritical fluid” (Nano and Advanced Materials Institute Limited, priority 2012, dated 2016).

Key:
[1] = Dissolution rate study in a dissolution medium; type: physicochemical; details: over a period of 20 minutes
Procedure: FIG. 9 is dissolution profiles of raw genistein versus PCA processed genistein under different pressures of 70 bar (Run 6) and 100 bar (Run 4).
46% weight percentage of the processed genistein from Run 4 (100 bar) is dissolved in a dissolution medium while only 23% of the unprocessed genistein is dissolved over a period of 20 minutes. This 2-fold increase in dissolution rate can be credited to the reduction in particle size resulting in an increase in total surface area. However, the dissolution rate for particles which are obtained at 70 bar with smaller particles (Run 6) is slower than that of particles obtained at 100 bar (Run 4).

[2] = Saturation concentration of genistein in acetone; type: physicochemical; details: room temperature and atmospheric pressure
Procedure: As used herein, the concentration of genistein means the concentration of the genistein dissolved in an organic solvent such as acetone at room temperature and atmospheric pressure. The saturation point of genistein concentration dissolved in acetone at room temperature and atmospheric pressure is 4 mg/mL.

weight percentage dissolved in a dissolution medium [1]: 23% | saturation point of genistein concentration dissolved in acetone [2]: 4 mg/mL
SMILES: O=c1c(-c2ccc(O)cc2)coc2cc(O)cc(O)c12 [unprocessed genistein, genistein]
